According to ChEMBL document CHEMBL1201862, “PubChem BioAssay data set” (2004):
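Where inhibition never reached the appropriate level, the endpoint shown equals the highest concentration tested. Otherwise, values were interpolated linearly from a five-concentration, 48-hour dose response in 96-well plates. At the GI50, growth is halved.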 Active and inactive are the calls of the source. Cut-off read from the data, not from the text of the source: active = GI50 up to about 1.1 µM and inactive = higher.

What was measured:
Experiment in all cases: NCI anticancer screen, dose series, 48 h
786-0 = system: 786-0
A498 = system: A498
A549 = system: A549
ACHN = system: ACHN
BT-549 = system: BT-549
CAKI-1 = system: CAKI-1
CCRF-CEM = system: CCRF-CEM
COLO 205 = system: COLO 205
DLD-1 = system: DLD-1
DMS-114 = system: DMS-114
DMS-273 = system: DMS-273
DU-145 = system: DU-145
EKVX = system: EKVX
HCC 2998 = system: HCC 2998
HCT-116 = system: HCT-116
HCT-15 = system: HCT-15
HL-60 = system: HL-60
HOP-62 = system: HOP-62
HOP-92 = system: HOP-92
HT-29 = system: HT-29
Hs-578T = system: Hs-578T
IGROV-1 = system: IGROV-1
K562 = system: K562
KM-20L2 = system: KM-20L2
KM12 = system: KM12
LOX IMVI = system: LOX IMVI
LXFL 529 = system: LXFL 529
M14 = system: M14
M19-MEL = system: M19-MEL
MCF7 = system: MCF7
MDA-MB-231 = system: MDA-MB-231
MDA-MB-435 = system: MDA-MB-435
MDA-N = system: MDA-N
MOLT-4 = system: MOLT-4
Malme-3M = system: Malme-3M
NCI-H226 = system: NCI-H226
NCI-H23 = system: NCI-H23
NCI-H460 = system: NCI-H460
NCI-H522 = system: NCI-H522
NCI/ADR-RES = system: NCI/ADR-RES
OVCAR-3 = system: OVCAR-3
OVCAR-4 = system: OVCAR-4
OVCAR-5 = system: OVCAR-5
OVCAR-8 = system: OVCAR-8
PC-3 = system: PC-3
RPMI-8226 = system: RPMI-8226
RXF 393 = system: RXF 393
RXF 631 = system: RXF 631
SF-268 = system: SF-268
SF-295 = system: SF-295
SF-539 = system: SF-539
SK-MEL-28 = system: SK-MEL-28
SK-MEL-2 = system: SK-MEL-2
SK-MEL-5 = system: SK-MEL-5
SK-OV-3 = system: SK-OV-3
SN12C = system: SN12C
SNB-19 = system: SNB-19
SNB-75 = system: SNB-75
SNB-78 = system: SNB-78
SR = system: SR
SW-620 = system: SW-620
T47D = system: T47D
TK-10 = system: TK-10
U-251 = system: U-251
UACC-257 = system: UACC-257
UACC-62 = system: UACC-62
UO-31 = system: UO-31

CN(C)C(=S)SN(C)C(=O)Nc1ccccc1
GI50 (786-0): 6.62 µM (inactive)
GI50 (A498): 3.9 µM (inactive)
GI50 (A549): 23.4 µM (inactive)
GI50 (ACHN): 47.2 µM (inactive)
GI50 (BT-549): > 41.2 µM (inactive)
GI50 (CAKI-1): 26.1 µM (inactive)
GI50 (CCRF-CEM): 0.993 µM (active)
GI50 (COLO 205): 4.48 µM (inactive)
GI50 (DLD-1): 31.1 µM (inactive)
GI50 (DMS-114): 2.4 µM (inactive)
GI50 (DMS-273): 18.2 µM (inactive)
GI50 (DU-145): 63 µM (inactive)
GI50 (EKVX): > 86.9 µM (inactive)
GI50 (HCC 2998): 17.3 µM (inactive)
GI50 (HCT-116): 8.91 µM (inactive)
GI50 (HCT-15): 22.6 µM
GI50 (HL-60): 2.86 µM (inactive)
GI50 (HOP-62): > 65.9 µM (inactive)
GI50 (HOP-92): 3.5 µM (inactive)
GI50 (HT-29): 1.69 µM (inactive)
GI50 (Hs-578T): > 100 µM (inactive)
GI50 (IGROV-1): 26 µM (inactive)
GI50 (K562): 0.998 µM (active)
GI50 (KM-20L2): > 49.2 µM (inactive)
GI50 (KM12): 12.1 µM (inactive)
GI50 (LOX IMVI): 8.26 µM (inactive)
GI50 (LXFL 529): 0.391 µM (active)
GI50 (M14): 7.46 µM (inactive)
GI50 (M19-MEL): 2.21 µM (inactive)
GI50 (MCF7): 2.67 µM (inactive)
GI50 (MDA-MB-231): 38.9 µM (inactive)
GI50 (MDA-MB-435): 19.7 µM (inactive)
GI50 (MDA-N): 9.53 µM (inactive)
GI50 (MOLT-4): 2.76 µM (inactive)
GI50 (Malme-3M): 16.7 µM (inactive)
GI50 (NCI-H226): 45.8 µM (inactive)
GI50 (NCI-H23): 7.4 µM (inactive)
GI50 (NCI-H460): 1.82 µM (inactive)
GI50 (NCI-H522): 0.128 µM (active)
GI50 (NCI/ADR-RES): 3.2 µM (inactive)
GI50 (OVCAR-3): 0.618 µM (active)
GI50 (OVCAR-4): 5.06 µM (inactive)
GI50 (OVCAR-5): 12.2 µM (inactive)
GI50 (OVCAR-8): 35.3 µM (inactive)
GI50 (PC-3): 7.43 µM (inactive)
GI50 (RPMI-8226): 15.7 µM (inactive)
GI50 (RXF 393): 1.18 µM (inactive)
GI50 (RXF 631): > 51.9 µM (inactive)
GI50 (SF-268): 38.4 µM (inactive)
GI50 (SF-295): 49.3 µM (inactive)
GI50 (SF-539): 34.1 µM (inactive)
GI50 (SK-MEL-28): 12.2 µM (inactive)
GI50 (SK-MEL-2): 39.4 µM (inactive)
GI50 (SK-MEL-5): 3.28 µM (inactive)
GI50 (SK-OV-3): > 87.7 µM (inactive)
GI50 (SN12C): 41.2 µM (inactive)
GI50 (SNB-19): 80.2 µM (inactive)
GI50 (SNB-75): 28.6 µM (inactive)
GI50 (SNB-78): 39.9 µM (inactive)
GI50 (SR): 5.43 µM (inactive)
GI50 (SW-620): 7.28 µM (inactive)
GI50 (T47D): 1.26 µM (inactive)
GI50 (TK-10): > 96.2 µM (inactive)
GI50 (U-251): 18 µM (inactive)
GI50 (UACC-257): 46.1 µM (inactive)
GI50 (UACC-62): 3.62 µM (inactive)
GI50 (UO-31): 57.7 µM (inactive)
